Measurements: patent US10131652B2, “Pyrimidinyloxy benzene derivatives as herbicides” (E. I. DU PONT DE NEMOURS AND COMPANY, priority 2014, dated 2018)

Experiments:
Type in all cases: in vivo
[1] = tested on: giant foxtail (Setaria faberii); test: Test B pre-/postemergence plant response; conditions: for Foxtail, Giant plant response rating: 0 to 100 scale (0 no effect, 100 complete control)
Outline: (§1)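 Greenhouse pots, loam/sand soil; compound formulated with surfactant in non-phytotoxic solvent. Preemergence soil spray and postemergence spray at 1–2 leaf stage run simultaneously. Visual injury, 0–100, about 10 days post-treatment.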

[2] = tested on: corn (Zea mays); test: Test B pre-/postemergence plant response; conditions: 0 to 100 scale, 0 no effect, 100 complete control
Outline: as §1

[3] = tested on: barnyardgrass (Echinochloa crus-galli); test: Test B pre-/postemergence plant response; conditions: for Barnyardgrass plant response rating: 0 to 100 scale (0 no effect, 100 complete control)
Outline: as §1

[4] = tested on: wheat (Triticum aestivum); test: Test B pre-/postemergence plant response; conditions: 125 g ai/ha, postemergence; 0 to 100 scale, 0 no effect, 100 complete control
Outline: as §1

[5] = tested on: pigweed (Amaranthus retroflexus); test: Test B pre-/postemergence plant response; conditions: for Pigweed plant response rating: 0 to 100 scale (0 no effect, 100 complete control)
Outline: as §1

[6] = tested on: soybean (Glycine max); test: Test D pre-/postemergence plant response
Outline: (§2)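 Plants are held in a greenhouse 13 to 15 days after spraying, then injury is rated by eye relative to controls on a 0 to 100 scale. Treatments are preemergence on freshly sown loam/sand pots or postemergence at 1- to 4-leaf stage in peat-based medium; surfactant-containing solvent formulation.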

[7] = tested on: corn (Zea mays); test: Test D pre-/postemergence plant response
Outline: as §2

[8] = tested on: winter wheat (Triticum aestivum); test: Test D pre-/postemergence plant response
Outline: as §2

[9] = tested on: waterhemp (common waterhemp, Amaranthus rudis); test: Test D pre-/postemergence plant response
Outline: as §2

[10] = tested on: morningglory (Ipomoea coccinea); test: Test D pre-/postemergence plant response
Outline: as §2

[11] = tested on: galium (catchweed bedstraw, Galium aparine); test: Test D pre-/postemergence plant response
Outline: as §2

[12] = tested on: large (Lg) crabgrass (Digitaria sanguinalis); test: Test D pre-/postemergence plant response
Outline: as §2

[13] = tested on: lambsquarters (Chenopodium album); test: Test D pre-/postemergence plant response
Outline: as §2

[14] = tested on: ragweed (common ragweed, Ambrosia elatior); test: Test D pre-/postemergence plant response
Outline: as §2

[15] = tested on: yellow nutsedge (Cyperus esculentus); test: Test D pre-/postemergence plant response
Outline: as §2

[16] = tested on: Italian ryegrass (Lolium multiflorum); test: Test D pre-/postemergence plant response
Outline: as §2

[17] = 31 g ai/ha, Postemergence, 0 to 100 scale, 0 no effect, 100 complete control
[18] = 31 g ai/ha, Preemergence, 0 to 100 scale where 0 is no effect and 100 is complete control
[19] = 125 g ai/ha, postemergence, 0 to 100 scale, 0 no effect, 100 complete control
[20] = Postemergence, 31 g ai/ha, scale 0 to 100 (0 no effect, 100 complete control)
[21] = Postemergence, 62 g ai/ha, scale 0 to 100, 0 no effect, 100 complete control
[22] = Postemergence, 125 g ai/ha, scale 0 to 100, 0 no effect, 100 complete control
[23] = Postemergence, 16 g ai/ha, scale 0 to 100 (0 no effect, 100 complete control)
[24] = Preemergence, 16 g ai/ha, scale 0 to 100 (0 no effect, 100 complete control)
[25] = Preemergence, 31 g ai/ha, scale 0 to 100 (0 no effect, 100 complete control)
[26] = Preemergence, 62 g ai/ha, scale 0 to 100 (0 no effect, 100 complete control)

With `Fc1cccc(Oc2ncc(Cl)cn2)c1-c1cc(C2CC2)on1` [Compound 130] the “Plant response rating, Foxtail, Giant” value [1, 17] was 50, the “Plant response rating, Foxtail, Giant” value [1, 18] was 90 and the “Plant response rating, Foxtail, Giant” value [1, 19] was 80. The “Foxtail, Giant plant response rating” value ([1]; Preemergence, 125 g ai/ha) was 100, the “Plant response rating, Corn” value ([2]; 31 g ai/ha, Postemergence) was 20 and the “Plant response rating, Corn” value ([2]; 125 g ai/ha, postemergence) was 40. For the same compound, the “Plant response rating, Barnyardgrass” value [3, 17] was 40, the “Plant response rating, Barnyardgrass” value [3, 18] was 50 and the “Plant response rating, Barnyardgrass” value [3, 19] was 100. The “Barnyardgrass plant response rating” value ([3]; Preemergence, 125 g ai/ha) was 90, the “Plant response rating, Wheat” value [4] was 40 and the “Plant response rating, Pigweed” value [5, 18] was 100. For the same compound, the “Plant response rating, Pigweed” value [5, 19] was 100, the “Pigweed plant response rating” value ([5]; Preemergence, 125 g ai/ha) was 100 and the “Soybean plant response rating” value [6, 20] was 55. For the same compound, the “Plant response rating, Soybean” value [6, 21] was 98, the “Plant response rating, Soybean” value [6, 22] was 95 and the “Corn plant response rating” value [7, 23] was 10. The “Corn plant response rating” value [7, 20] was 25, the “Plant response rating, Corn” value [7, 21] was 10 and the “Plant response rating, Corn” value [7, 22] was 10. The “Wheat plant response rating” value [8, 20] was 5, the “Plant response rating, Wheat” value [8, 21] was 30 and the “Plant response rating, Wheat” value [8, 22] was 35. For the same compound, the “Waterhemp plant response rating” value [9, 20] was 85, the “Plant response rating, Waterhemp” value [9, 21] was 98 and the “Plant response rating, Waterhemp” value [9, 22] was 98. The “Morningglory plant response rating” value [10, 20] was 80, the “Plant response rating, Morningglory” value [10, 21] was 85 and the “Plant response rating, Morningglory” value [10, 22] was 85. For the same compound, the “Galium plant response rating” value [11, 20] was 90, the “Plant response rating, Galium” value [11, 21] was 95 and the “Plant response rating, Galium” value [11, 22] was 100. The “Crabgrass, Large plant response rating” value [12, 23] was 10, the “Crabgrass, Large plant response rating” value [12, 20] was 20 and the “Plant response rating, Crabgrass, Large” value [12, 21] was 20. The “Plant response rating, Crabgrass, Large” value [12, 22] was 25, the “Lambsquarters plant response rating” value [13, 20] was 100 and the “Plant response rating, Lambsquarters” value [13, 21] was 100. For the same compound, the “Plant response rating, Lambsquarters” value [13, 22] was 100, the “Ragweed plant response rating” value [14, 20] was 60 and the “Plant response rating, Ragweed” value [14, 21] was 75. The “Plant response rating, Ragweed” value [14, 22] was 40, the “Nutsedge, Yellow plant response rating” value [15, 20] was 5 and the “Plant response rating, Nutsedge, Yellow” value [15, 21] was 20. For the same compound, the “Plant response rating, Nutsedge, Yellow” value [15, 22] was 25, the “Ryegrass, Italian plant response rating” value [16, 20] was 5 and the “Plant response rating, Ryegrass, Italian” value [16, 21] was 10. For the same compound, the “Plant response rating, Ryegrass, Italian” value [16, 22] was 15.
In the case of `FC(F)Oc1cccc(Oc2ncc(Cl)cn2)c1-c1cc(C(F)F)on1` [Compound 131], the “Plant response rating, Foxtail, Giant” value [1, 17] is reported as 50, the “Plant response rating, Foxtail, Giant” value [1, 18] is reported as 100 and the “Plant response rating, Foxtail, Giant” value [1, 19] is reported as 90. The “Foxtail, Giant plant response rating” value ([1]; Preemergence, 125 g ai/ha) was 100, the “Plant response rating, Corn” value ([2]; 31 g ai/ha, Postemergence) was 20 and the “Plant response rating, Corn” value ([2]; 125 g ai/ha, postemergence) was 40. For the same compound, the “Plant response rating, Barnyardgrass” value [3, 17] was 50, the “Plant response rating, Barnyardgrass” value [3, 18] was 80 and the “Plant response rating, Barnyardgrass” value [3, 19] was 90. For the same compound, the “Barnyardgrass plant response rating” value ([3]; Preemergence, 125 g ai/ha) was 100, the “Plant response rating, Wheat” value [4] was 30 and the “Plant response rating, Pigweed” value [5, 18] was 100. The “Plant response rating, Pigweed” value [5, 19] was 100, the “Pigweed plant response rating” value ([5]; Preemergence, 125 g ai/ha) was 100 and the “Soybean plant response rating” value [6, 20] was 15. The “Plant response rating, Soybean” value [6, 21] was 75, the “Plant response rating, Soybean” value [6, 22] was 65 and the “Plant response rating (scale 0 to 100), Soybean” value ([6]; Preemergence, 125 g ai/ha) was 85. The “Plant response rating, Soybean” value [6, 24] was 5, the “Plant response rating, Soybean” value [6, 25] was 10 and the “Plant response rating, Soybean” value [6, 26] was 50. For the same compound, the “Corn plant response rating” value [7, 23] was 5, the “Corn plant response rating” value [7, 20] was 5 and the “Plant response rating, Corn” value [7, 21] was 10. For the same compound, the “Plant response rating, Corn” value [7, 22] was 25, the “Plant response rating (scale 0 to 100), Corn” value ([7]; Preemergence, 125 g ai/ha) was 65 and the “Plant response rating, Corn” value [7, 24] was 0. The “Plant response rating, Corn” value [7, 25] was 10, the “Plant response rating, Corn” value [7, 26] was 60 and the “Wheat plant response rating” value [8, 20] was 0. The “Plant response rating, Wheat” value [8, 21] was 0, the “Plant response rating, Wheat” value [8, 22] was 0 and the “Plant response rating (scale 0 to 100), Wheat” value ([8]; Preemergence, 125 g ai/ha) was 5. For the same compound, the “Plant response rating, Wheat” value [8, 24] was 0, the “Plant response rating, Wheat” value [8, 25] was 0 and the “Plant response rating, Wheat” value [8, 26] was 0. For the same compound, the “Waterhemp plant response rating” value [9, 20] was 90, the “Plant response rating, Waterhemp” value [9, 21] was 90 and the “Plant response rating, Waterhemp” value [9, 22] was 98. For the same compound, the “Plant response rating (scale 0 to 100), Waterhemp” value ([9]; Preemergence, 125 g ai/ha) was 100, the “Plant response rating, Waterhemp” value [9, 24] was 100 and the “Plant response rating, Waterhemp” value [9, 25] was 100. The “Plant response rating, Waterhemp” value [9, 26] was 100, the “Morningglory plant response rating” value [10, 20] was 75 and the “Plant response rating, Morningglory” value [10, 21] was 75. The “Plant response rating, Morningglory” value [10, 22] was 95, the “Plant response rating (scale 0 to 100), Morningglory” value ([10]; Preemergence, 125 g ai/ha) was 85 and the “Plant response rating, Morningglory” value [10, 24] was 0. For the same compound, the “Plant response rating, Morningglory” value [10, 25] was 40, the “Plant response rating, Morningglory” value [10, 26] was 35 and the “Galium plant response rating” value [11, 20] was 85. The “Plant response rating, Galium” value [11, 21] was 95, the “Plant response rating, Galium” value [11, 22] was 95 and the “Plant response rating (scale 0 to 100), Galium” value ([11]; Preemergence, 125 g ai/ha) was 90. For the same compound, the “Plant response rating, Galium” value [11, 24] was 95, the “Plant response rating, Galium” value [11, 25] was 30 and the “Plant response rating, Galium” value [11, 26] was 90. For the same compound, the “Crabgrass, Large plant response rating” value [12, 23] was 5, the “Crabgrass, Large plant response rating” value [12, 20] was 5 and the “Plant response rating, Crabgrass, Large” value [12, 21] was 10. The “Plant response rating, Crabgrass, Large” value [12, 22] was 20, the “Plant response rating (scale 0 to 100), Crabgrass, Large” value ([12]; Preemergence, 125 g ai/ha) was 100 and the “Plant response rating, Crabgrass, Large” value [12, 24] was 98. For the same compound, the “Plant response rating, Crabgrass, Large” value [12, 25] was 100, the “Plant response rating, Crabgrass, Large” value [12, 26] was 100 and the “Lambsquarters plant response rating” value [13, 20] was 98. The “Plant response rating, Lambsquarters” value [13, 21] was 98, the “Plant response rating, Lambsquarters” value [13, 22] was 100 and the “Plant response rating (scale 0 to 100), Lambsquarters” value ([13]; Preemergence, 125 g ai/ha) was 98. For the same compound, the “Plant response rating, Lambsquarters” value [13, 24] was 75, the “Plant response rating, Lambsquarters” value [13, 25] was 80 and the “Plant response rating, Lambsquarters” value [13, 26] was 85. The “Ragweed plant response rating” value [14, 20] was 45, the “Plant response rating, Ragweed” value [14, 21] was 65 and the “Plant response rating, Ragweed” value [14, 22] was 75. For the same compound, the “Plant response rating (scale 0 to 100), Ragweed” value ([14]; Preemergence, 125 g ai/ha) was 25, the “Plant response rating, Ragweed” value [14, 24] was 0 and the “Plant response rating, Ragweed” value [14, 25] was 0. The “Plant response rating, Ragweed” value [14, 26] was 0, the “Nutsedge, Yellow plant response rating” value [15, 20] was 0 and the “Plant response rating, Nutsedge, Yellow” value [15, 21] was 5. The “Plant response rating, Nutsedge, Yellow” value [15, 22] was 10, the “Plant response rating (scale 0 to 100), Nutsedge, Yellow” value ([15]; Preemergence, 125 g ai/ha) was 70 and the “Plant response rating, Nutsedge, Yellow” value [15, 24] was 0. The “Plant response rating, Nutsedge, Yellow” value [15, 25] was 5, the “Plant response rating, Nutsedge, Yellow” value [15, 26] was 5 and the “Ryegrass, Italian plant response rating” value [16, 20] was 5. The “Plant response rating, Ryegrass, Italian” value [16, 21] was 5, the “Plant response rating, Ryegrass, Italian” value [16, 22] was 25 and the “Plant response rating (scale 0 to 100), Ryegrass, Italian” value ([16]; Preemergence, 125 g ai/ha) was 90. For the same compound, the “Plant response rating, Ryegrass, Italian” value [16, 24] was 0, the “Plant response rating, Ryegrass, Italian” value [16, 25] was 20 and the “Plant response rating, Ryegrass, Italian” value [16, 26] was 35.
